Tested on: 299254-011-R-J1-PDC complex spheroid viability
Test: Anticancer human tumor 299254-011-R-J1-PDC patient-derived melanoma cell line growth inhibition [POLQ]
Conditions: for IC50: curve of first compound; for viability, T/C: stronger effect = lower value
Outline: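 Patient-derived tumour cells were co-cultured with HUVEC and mesenchymal stem cells as multicellular spheroids at 37 °C. They were treated with POLQ inhibitors (novobiocin, ART-558, RP6685) alone or combined with other agents. Top concentrations were at or near clinical Cmax (otherwise 10 microM; SN-38 at 1 microM), decreasing in half-log steps.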
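Further: spheroids exposed to drugs for one week before measurement.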
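Wherever viability, T/C is given: percent viability relative to DMSO vehicle control taken as 100%.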

CCCS(=O)(=O)Nc1ccc(F)c(C(=O)c2c[nH]c3ncc(-c4ccc(Cl)cc4)cc23)c1F + COC1C(OC(N)=O)C(O)C(Oc2ccc3c(O)c(NC(=O)c4ccc(O)c(CC=C(C)C)c4)c(=O)oc3c2C)OC1(C)C
IC50 (second compound 0.0316 µM): > 10 µM | IC50 (second compound 0.1 µM): > 10 µM | IC50 (second compound 0.316 µM): > 10 µM | IC50 (second compound 1 µM): > 10 µM | IC50 (second compound 3.16 µM): > 10 µM | IC50 (second compound 10 µM): > 10 µM | viability, T/C (second compound 0.0316 µM, first compound 0.0316 µM): 116% | viability, T/C (second compound 0.0316 µM, first compound 0.1 µM): 94.3% | viability, T/C (second compound 0.0316 µM, first compound 0.316 µM): 107% | viability, T/C (second compound 0.0316 µM, first compound 1 µM): 136% | viability, T/C (second compound 0.0316 µM, first compound 3.16 µM): 107% | viability, T/C (second compound 0.0316 µM, first compound 10 µM): 69.6% | viability, T/C (second compound 0.1 µM, first compound 0.0316 µM): 111% | viability, T/C (second compound 0.1 µM, first compound 0.1 µM): 97.4% | viability, T/C (second compound 0.1 µM, first compound 0.316 µM): 118% | viability, T/C (second compound 0.1 µM, first compound 1 µM): 105% | viability, T/C (second compound 0.1 µM, first compound 3.16 µM): 123% | viability, T/C (second compound 0.1 µM, first compound 10 µM): 63.8% | viability, T/C (second compound 0.316 µM, first compound 0.0316 µM): 93.6% | viability, T/C (second compound 0.316 µM, first compound 0.1 µM): 99.2% | viability, T/C (second compound 0.316 µM, first compound 0.316 µM): 120% | viability, T/C (second compound 0.316 µM, first compound 1 µM): 117% | viability, T/C (second compound 0.316 µM, first compound 3.16 µM): 121% | viability, T/C (second compound 0.316 µM, first compound 10 µM): 68.8% | viability, T/C (second compound 1 µM, first compound 0.0316 µM): 94% | viability, T/C (second compound 1 µM, first compound 0.1 µM): 98.4% | viability, T/C (second compound 1 µM, first compound 0.316 µM): 99.2% | viability, T/C (second compound 1 µM, first compound 1 µM): 107% | viability, T/C (second compound 1 µM, first compound 3.16 µM): 118% | viability, T/C (second compound 1 µM, first compound 10 µM): 67.5% | viability, T/C (second compound 3.16 µM, first compound 0.0316 µM): 108% | viability, T/C (second compound 3.16 µM, first compound 0.1 µM): 113% | viability, T/C (second compound 3.16 µM, first compound 0.316 µM): 116% | viability, T/C (second compound 3.16 µM, first compound 1 µM): 126% | viability, T/C (second compound 3.16 µM, first compound 3.16 µM): 124% | viability, T/C (second compound 3.16 µM, first compound 10 µM): 82.8% | viability, T/C (second compound 10 µM, first compound 0.0316 µM): 106% | viability, T/C (second compound 10 µM, first compound 0.1 µM): 112% | viability, T/C (second compound 10 µM, first compound 0.316 µM): 110% | viability, T/C (second compound 10 µM, first compound 1 µM): 118% | viability, T/C (second compound 10 µM, first compound 3.16 µM): 118% | viability, T/C (second compound 10 µM, first compound 10 µM): 83.4%

— PubChem BioAssay AID1963849 (Molecular Pharmacology Branch, DTP, NCI, 2024)
